Reference: ChEMBL document CHEMBL3507680, “University of Dundee, Gates Library screen for HepG2 cell viability”

experiment: Human HepG2 cell viability assay in 384 well format; type: toxicity, cell-based; parameters: dose 125 nL, time 70.5 hour; concentration not given beside the values; settings: HepG2 cells, read-out: Inhibition

Row | Structure (SMILES) | cytotoxicity at 70.5 h
1 | O=C1CCN(CCCS(=O)(=O)c2ccc(Cl)cc2)CCN1 | -4.67%
2 | Cc1n[nH]c(C2CN(C(=O)c3ccn(C)c(=O)c3)CCO2)n1 (centres undefined) | 31.8%
3 | NC(=O)C1(CNCc2csc(-c3cccs3)n2)CCOCC1 | -6.81%
4 | CC(NC(=O)NCCCn1ccnc1)c1ccc2c(c1)OCCCO2 (centres undefined) | -10.6%
5 | Cc1cccn2c(=O)cc(OC(=O)c3ccc(OC(C)C)cc3)nc12 | -14.3%
6 | CN1N=C(C(=O)N(Cc2ccco2)C2CC2)CCC1=O | -9.82%
7 | O=C(NCC(O)c1ccc(F)c(F)c1)c1ccccc1F (centres undefined) | -9.96%
8 | CN(C)CCN1CCOCC2(CCCN(C(=O)Cc3ccccc3)C2)C1 (centres undefined) | 10.9%
9 | COC[C@]1(O)CCN(C(=O)c2cccc(CN(C)C)c2)CC1(C)C | -5.34%
10 | CC(NC(=O)CCn1cccn1)c1ccc(-n2ccnn2)cc1 (centres undefined) | 15.4%
11 | Cc1ccc(CC(=O)NC(C)C(=O)N2CCS(=O)(=O)CC2)s1 (centres undefined) | -1.34%
12 | CC(=O)Nc1nc2c(s1)C1(CCCC1)Nc1ccccc1S2 | -3.55%
13 | CCNc1ncc(C(=O)N(C)C(C)c2ccc3c(c2)OCCO3)cn1 (centres undefined) | -2.94%
14 | c1cnc(N2CCCn3nnc(COCC4CC4)c3C2)nc1 | -1.29%
15 | N#Cc1ccc(Cl)cc1NCC1CC1 | -5.4%
16 | COc1cccc(OCC(=O)Nc2cc(C)cnc2OC)c1 | 2.85%
17 | Cc1ccc(CNC(=O)Nc2nncs2)cn1 | -6.07%
18 | CCN(CC)C(=O)[C@@H]1C[C@@H](N)CN1c1nc(N2CCCC2)nc(C)c1C | 25.5%
19 | Cc1nc([C@@H]2C[C@@H]3CCN(C(=O)c4occc4C)C[C@H]3O2)no1 | 23.8%
20 | CCc1ncnc2c1CCN(C(=O)Cc1ccccn1)CC2 | -19.9%
21 | Cc1cccc(COc2ccc(C(C)NS(N)(=O)=O)cc2)c1 (centres undefined) | -8.27%
22 | Cc1nc(C)n(CC2CCCN(CCCS(=O)(=O)N(C)C)C2)n1 (centres undefined) | -0.887%
23 | Cc1csc(CNC(=O)NCC(O)c2cccc(Cl)c2)n1 (centres undefined) | -11%

Row | Structure (SMILES) | cytotoxicity at 70.5 h
24 | COc1cccc(OCCNS(=O)(=O)Cc2ccccc2)c1 | 19.4%
25 | CC(C)N1CCOCC2(CN(Cc3cccs3)CCO2)C1 (centres undefined) | -0.496%
26 | CC(=O)N1Cc2cnc(C(C)(C)C)nc2C1 | 19.2%
27 | Cc1ccc(-n2cnnn2)cc1NCC(=O)Nc1cc(F)ccc1F | -66.2%
28 | Cc1ccc(C)c(CC(=O)NC2(C#N)CCOCC2)c1 | 1.6%
29 | O=C1CC[C@H](C(=O)N(Cc2cccc(Br)c2)C2CC2)N1 | 2.31%
30 | Cc1ccc(S(C)(=O)=O)cc1C(=O)N(C)Cc1ccco1 | -3.41%
31 | CCCC(=O)NS(=O)(=O)c1ccc(C#N)c(C(F)(F)F)c1 | 1.39%
32 | CC(C)CCN1C[C@H]2C[C@H](C(=O)N3CCCC3)[C@@H](C1)O2 | -5.2%
33 | CSc1ncn(-c2nc(N(C)C)nc(N(C)C)n2)n1 | 36.4%
34 | CS(=O)(=O)N1CCC(NC(=O)COc2ccccc2Cl)CC1 | -3.89%
35 | Cc1cccc(N2CCN(CCC(=O)NCc3ccc(C)s3)CC2)c1 | 20.7%
36 | COc1ccnc(N2CCN(C(=O)c3cnc(C4CC4)s3)CC2)n1 | -5.21%
37 | COc1ccc(C)cc1C1(CNc2cncc(Cl)n2)CCOCC1 | -8.23%
38 | O=C(C1CCOCC1)N1CCC(O)(Cn2ccc3ccncc32)CC1 | -6.06%
39 | Cc1ccc(-c2cc(C(=O)NCCN3CCCS3(=O)=O)[nH]n2)cc1 | 11.7%
40 | COCCNC(=O)c1ccc2ccc(N(C)CC3CC3)n2c1 | -5.92%
41 | CCN(C(=O)c1cc(C)nc2ccccc12)C1CC(=O)NC1=O (centres undefined) | -1.78%
42 | Oc1ccc(N2CCN(Cc3ccc(F)cc3Br)CC2)cc1 | -7.04%
43 | c1ccc(CN2CCc3ncnc(C4CC4)c3CC2)nc1 | -1.29%
44 | CCCNC(=O)C(C)Nc1ccc(OCC)cc1 (centres undefined) [PROPETAMIDE] | -8.27%
45 | O=C(c1cnccn1)N1C[C@@H]2CC[C@H](C1)N(C(=O)CCc1ccsc1)C2 | -0.591%
46 | O=C(O)c1ncccc1N1CCCCC1 | -14.8%

Row | Structure (SMILES) | cytotoxicity at 70.5 h
47 | CCCn1nc(C)c(-c2cncn2CCN(C)C2CCCC2)c1C | -4.61%
48 | Cc1n[nH]c(SCC(=O)NC(c2ccncc2)C(C)C)n1 (centres undefined) | 21%
49 | Cc1noc2nc(C3CCCN(Cc4cccnc4)C3)cc(C(F)F)c12 (centres undefined) | -3.71%
50 | O=C(CCCc1nc2ccccc2[nH]1)N1CCCC1c1ccccn1 (centres undefined) | 0.793%
51 | COC(=O)c1cccn1C1CCN(Cc2cccc(C(N)=O)c2)CC1 | -0.0643%
52 | CO[C@@H]1CC[C@H]2[C@H]1OCCN2C(=O)C1=CCCC1 | -20.1%
53 | Cc1cnc(CC2COCCN(C(=O)CN3CCCCC3)C2)cn1 (centres undefined) | -2.32%
54 | CCC(NC(=O)NCc1cc(Cl)ccc1OC)c1noc(C)n1 (centres undefined) | 16%
55 | Cc1nc2ccccc2nc1CN1CCCC(Cn2cncn2)C1 (centres undefined) | -3.51%
56 | CCC(CC)n1nc(C)cc1NC(=O)C1CCCO1 (centres undefined) | -8.67%
57 | COc1cc(CNC(=O)N(Cc2ccc(F)cc2F)C2CC2)ccn1 | -12.9%
58 | Cc1ncc(CC(=O)N2CCC3(CCC(=O)N(C4CC4)C3)CC2)c(=O)[nH]1 | 5.88%
59 | CCS(=O)(=O)N1CCc2c(CN3CCOCC3)cncc2C1 | -4.84%
60 | O=c1[nH]cc(Nc2ccccc2)c(=O)[nH]1 | 35%
61 | CCOCCNC(=O)C1CCC(=O)N(CCc2ccc(Cl)cc2)C1 (centres undefined) | -3.36%
62 | Cc1ncc(C(=O)N2CCCC2c2c(C)nn(C)c2C)s1 (centres undefined) | -2.56%
63 | O=C1NCC[C@]12CN(Cc1ccoc1)C[C@H]2c1ccccc1 | 16.2%
64 | CC(C)c1nc2c(n1C)CCN(CCS(=O)(=O)c1ccccc1)C2 | -12.4%
65 | CCC(CO)N(Cc1ccsc1)Cc1ccccc1C#N (centres undefined) | -11.3%
66 | CC(C)(C)c1cn2nc(N3CCCC3Cn3cncn3)sc2n1 (centres undefined) | -10.8%
67 | CC(=O)NCc1ccc(C(=O)NC2CCc3nc(C)cn3C2)o1 (centres undefined) | -3.32%
68 | c1ccc(Cc2noc(CN3CCc4cncnc4C3)n2)cc1 | -9.62%
69 | CC(C)CC(O)C1CCN(Cc2ccc(N(C)C)nc2)CC1 (centres undefined) | 23.2%

Row | Structure (SMILES) | cytotoxicity at 70.5 h
70 | O=C1CC2(CCSC2)C(=O)N1Cc1coc(-c2ccccc2)n1 (centres undefined) | 2.52%
71 | CCCS(=O)(=O)N1C[C@H]2C[C@H](C(=O)N3CCN(C)CC3)[C@@H](C1)O2 | 4.46%
72 | Cn1cnc2c(N3CCCC3)nc(C3CCNCC3)cc21 | -17%
73 | Cc1nc2n(n1)CC(NCC(=O)NCCC1=CCCCC1)CC2 (centres undefined) | 0.305%
74 | CN(C)CC(=O)N1CCC2(CC1)COC(COc1ccccn1)C2 (centres undefined) | -7.86%
75 | Cc1cc(C(=O)O)cc(S(=O)(=O)Nc2ccc3c(c2)OCO3)c1C | 20.2%
76 | COc1ccccc1OC1CN(Cc2ccc(C(=O)O)cc2)C1 | -8.2%
77 | CCc1csc(C2CCCN(C(=O)c3cnc[nH]3)C2)n1 (centres undefined) | -7.63%
78 | COc1ccc(-c2noc(Cn3cc4c(n3)CCC4)n2)c(OC)c1OC | -2.31%
79 | O=C(CC1CCCCC1)N1CCC(O)(C(F)(F)F)C1 (centres undefined) | 1.99%
80 | CC(NC(=O)N1CCN(c2cccs2)CC1)c1ccc(C#N)cc1 (centres undefined) | -2.79%
81 | O=C(CCc1ccccn1)NC1CCCN(C2Cc3ccccc3C2)C1 (centres undefined) | -8.7%
82 | CN(C)c1cc2c(nn1)CCN(C(=O)C1COc3ccccc3C1)C2 (centres undefined) | 3.17%
83 | COCCn1ccc2c(NC(=O)c3n[nH]c4c3CCCC4)cccc21 | 7.53%
84 | CCCn1ncc(C(=O)N2CCN(C(=O)c3ccc[nH]3)CC2)c1C | -7.32%
85 | CCC(CC)C(=O)N1CCN(Cc2cc(-c3ccncc3)nn2C)CC1 | 1.08%
86 | Cc1cc(NC(C)c2nnn[nH]2)n2nc(C)c(C)c2n1 (centres undefined) | 5.16%
87 | Cc1cc(C2CN(CC(=O)NCc3ccco3)CCO2)ccc1F (centres undefined) | -11.9%
88 | CN(C)Cc1ccnc(C2CN(CCCc3ccccc3)CCO2)n1 (centres undefined) | -6.75%
89 | COCC(C)(O)CNC(=O)c1cc(-c2cc(OC)ccc2OC)nn1C (centres undefined) | 6.52%
90 | CN(CC1CC1)C(=O)CN(Cc1cccc(O)c1)C1CCC(O)CC1 (centres undefined) | -6.77%
91 | COc1ncccc1CN1C[C@@H]2COC[C@]2(COCC2CC2)C1 | -11.6%
92 | COCCN1C(=O)[C@H]2CC[C@@H]1CN(S(=O)(=O)c1ccc(C#N)cc1)C2 | -3.7%

Row | Structure (SMILES) | cytotoxicity at 70.5 h
93 | CC(=O)N1Cc2nc(C(=O)NCCc3cccnc3)oc2C1 | -6.92%
94 | Cc1nnc2n1CCN(C(=O)c1cnc3c(cnn3CC(C)C)c1)C2 | 25.8%
95 | O=C(NCCc1nncn1C1CC1)c1cnn(Cc2ccccc2)c1 | -11.1%
96 | Cc1cncc(C2CCCN(C(=O)c3cn(C)nc3C)C2)n1 (centres undefined) | -3.29%
97 | Cc1nc(O)cc(CCNc2nccc(CCC(F)(F)F)n2)n1 | -8.71%
98 | CCn1cc2c(n1)CN(Cc1ccoc1)CC2COCC1CC1 (centres undefined) | 6.36%
99 | O=C(CC1CCCCC1)NC1CCCCNC1=O (centres undefined) | -9.32%
100 | Cc1nc(C2CCCN2CCOCC2CC2)no1 (centres undefined) | -11.1%
101 | CSc1ccccc1CN1CCn2nc(CNC(=O)N(C)C)cc2C1 | -8.7%
102 | CCN1CC(C(=O)NCCc2csc(-c3ccncc3)n2)CCC1=O (centres undefined) | -5.21%
103 | CCc1nc(C2CCCN2C(=O)c2cc(Cl)c[nH]2)no1 (centres undefined) | -2.89%
104 | CC(=O)N1CCC(NC[C@H]2Cn3c(-c4ccccc4)cnc3CO2)CC1 | -5.76%
105 | Cn1cc(C(=O)N2CCCN(C3Cc4ccccc4C3)CC2)cn1 | -13.8%
106 | CCOc1cccc(CNc2ccccc2C(=O)OC)c1O | 3.64%
107 | CSCc1cc(F)ccc1CNC(=O)N1CCCC(CO)C1 (centres undefined) | -7.73%
108 | CCc1cnc(N2CC3(CCN(S(=O)(=O)C4CC4)C3)C2)nc1 | -8.49%
109 | CCN(CC)Cc1ccccc1NCc1c(C)noc1C | -0.774%
110 | Cc1cccc(N(CCC(N)=O)C(=O)c2cnccn2)c1 | -12.9%
111 | CCn1c(Cn2cncn2)nnc1C1CCN(Cc2ccccn2)CC1 | 6.14%
112 | CCC(C)CNC(=O)[C@@H]1CCCN1c1nccc(Nc2ccccc2)n1 (some centres undefined) | 1.56%
113 | Cn1cc(C(=O)Nc2ccc3c(c2)N(C(=O)c2ccco2)CC3)nn1 | 0.738%
114 | Cc1ccc(S(N)(=O)=O)cc1C(=O)N1CCc2c(ncnc2N(C)C)C1 | 0.0385%
